Results as given in publication doi:10.1101/2022.05.03.490502v1 (biorxiv, 2022).

Key:
[1] = target: T1, LAT1 (hLAT1; LAT1/4F2hc) (Homo sapiens, UniProt Q01650); experiment: cell-based; parameters: species or system TREx HEK-hLAT1
[2] = target: T1, LAT1 (hLAT1; LAT1/4F2hc); experiment: cis-inhibition of [3H]-gabapentin uptake, TREx HEK-hLAT1 cells; type: cell-based

T1 sequence (Q01650 whole entry): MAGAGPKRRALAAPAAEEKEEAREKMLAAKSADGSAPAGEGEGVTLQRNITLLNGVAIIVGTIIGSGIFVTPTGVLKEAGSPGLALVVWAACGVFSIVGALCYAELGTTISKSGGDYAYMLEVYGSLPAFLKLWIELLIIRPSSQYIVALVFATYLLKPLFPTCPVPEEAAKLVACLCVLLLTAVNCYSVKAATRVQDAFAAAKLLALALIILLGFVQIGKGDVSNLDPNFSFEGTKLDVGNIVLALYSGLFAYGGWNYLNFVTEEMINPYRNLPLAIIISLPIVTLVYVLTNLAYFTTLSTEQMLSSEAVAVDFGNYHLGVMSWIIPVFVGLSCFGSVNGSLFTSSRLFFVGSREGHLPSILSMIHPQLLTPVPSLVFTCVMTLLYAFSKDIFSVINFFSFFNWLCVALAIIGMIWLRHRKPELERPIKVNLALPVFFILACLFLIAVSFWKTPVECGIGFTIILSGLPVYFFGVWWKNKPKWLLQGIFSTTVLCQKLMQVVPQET
T1 sequence (P08195 103-630 partner): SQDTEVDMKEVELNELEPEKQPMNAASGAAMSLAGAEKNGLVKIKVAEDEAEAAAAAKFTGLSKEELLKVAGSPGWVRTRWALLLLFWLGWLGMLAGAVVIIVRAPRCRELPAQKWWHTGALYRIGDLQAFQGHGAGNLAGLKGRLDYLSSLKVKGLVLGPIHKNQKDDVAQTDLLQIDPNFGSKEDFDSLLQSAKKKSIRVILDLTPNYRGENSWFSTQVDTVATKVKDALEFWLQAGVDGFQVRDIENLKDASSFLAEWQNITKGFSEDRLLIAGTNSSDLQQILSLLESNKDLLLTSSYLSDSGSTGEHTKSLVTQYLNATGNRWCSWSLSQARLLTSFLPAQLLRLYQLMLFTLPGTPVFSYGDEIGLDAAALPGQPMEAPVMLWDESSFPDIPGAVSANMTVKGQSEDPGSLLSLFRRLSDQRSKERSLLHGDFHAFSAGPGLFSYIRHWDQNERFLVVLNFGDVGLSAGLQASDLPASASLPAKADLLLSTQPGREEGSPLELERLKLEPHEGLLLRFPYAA

Row | Compound | IC50 [1] [µM] | IC50 [2] [µM]
1 | N[C@@H](Cc1ccc(/N=N/c2ccccc2)cc1)C(=O)O [EN14] | 16 | –
2 | NC(Cc1ccc(O)c(OCc2ccccc2)c1)C(=O)O (centres unmarked) [EN2] | – | 63.3

Next, values leading:

Row | IC50 [1] [µM] | IC50 [2] [µM] | Compound
3 | 91.8 | – | N[C@@H](Cc1ccccc1)C(=O)O [L-Phe]
4 | – | 44.4 | N[C@@H](CNC(=O)OCC1c2ccccc2-c2ccccc21)C(=O)O [KH1]
5 | – | 11.8 | N[C@@H](Cc1c[nH]c2ccc(OCc3ccccc3)cc12)C(=O)O [KH13]
